Test system: AMP-activated protein kinase (AMPK)
Assay: ADP Quest assay for AMPK activators
Type: biochemical
Design: key: fold AMPK activation with vs without activator at 30 µM
Conditions: fold of AMPK activation to phosphorylate SAMS peptide without and with an activator at the concentration of 30 µM
Procedure, shortened: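 E30, the fold increase in SAMS peptide phosphorylation at 30 µM compound relative to no activator, is derived from kinetic fluorescent detection of ADP (ex 530, em 590 nm). AMPK starts the ATP-containing reaction at room temperature; compounds span […] by 2-fold steps, AMP serves as reference.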

An E30 of 1.23 was found for `CC(C)(C)NC(=O)c1ccc(-c2cccc(C3Nc4ccc(C(=O)NS(C)(=O)=O)cc4CC3(C)C)c2)cc1` (stereo not drawn) [Example 160, 3′-(6-Methanesulfonylaminocarbonyl-3,3-dimethyl-1,2,3,4-tetrahydro-quinolin-2-yl)-biphenyl-4-carboxylic acid tert-butylamide] in this work.
An E30 of 1.21 was found for `CC1(C)Cc2cc(C(=O)NS(=O)(=O)C3CC3)ccc2NC1c1cccc(-c2ccc(S(C)(=O)=O)cc2)c1` (stereo not drawn) [Example 161, Cyclopropanesulfonic acid [2-(4′-methanesulfonyl-biphenyl-3-yl)-3,3-dimethyl-1,2,3,4-tetrahydro-quinoline-6-carbonyl]-amide] in this work.
An E30 of 1.2 was found for `CC(C)(C)NC(=O)c1ccc(-c2cccc(C3Nc4ccc(C(=O)O)cc4CC3(C)C)c2)cc1` (stereo not drawn) [Example 162, 2-(4′-tert-Butylcarbamoyl-biphenyl-3-yl)-3,3-dimethyl-1,2,3,4-tetrahydro-quinoline-6-carboxylic acid] in this work.
An E30 of 3.68 was found for `CC(C)(Nc1ccccc1C1Nc2ccc(C(=O)O)cc2CC1(C)C)C(=O)O` (stereo not drawn) [Example 163, 2-[2-(1-Carboxy-1-methyl-ethylamino)-phenyl]-3,3-dimethyl-1,2,3,4-tetrahydro-quinoline-6-carboxylic acid] in this work.
An E30 of 1.78 was found for `CC1(C)Cc2cc(C(=O)O)ccc2NC1c1ccccc1NC1(C(=O)O)CC1` (stereo not drawn) [Example 164, 2-[2-(1-Carboxy-cyclopropylamino)-phenyl]-3,3-dimethyl-1,2,3,4-tetrahydro-quinoline-6-carboxylic acid] in this work.
An E30 of 1.53 was found for `CN1CCC(NC(=O)c2cccc(C3Nc4ccc(C(=O)O)cc4CC3(C)C)c2)C1` (stereo not drawn) [Example 165, 3,3-dimethyl-2-(3-(1-methylpyrrolidin-3-ylcarbamoyl)phenyl)-1,2,3,4-tetrahydroquinoline-6-carboxylic acid] in this work.
An E30 of 1.43 was found for `CC(C)S(=O)(=O)Nc1cccc(C2Nc3ccc(C(=O)O)cc3CC2(C)C)c1` (stereo not drawn) [Example 166, 3,3-Dimethyl-2-(3-(1-methylethylsulfonamido)phenyl)-1,2,3,4-tetrahydroquinoline-6-carboxylic acid] in this work.
An E30 of 1.4 was found for `CC1(C)Cc2cc(C(=O)O)ccc2NC1c1cccc(C(=O)NC2CCOC2)c1` (stereo not drawn) [Example 167, 3,3-Dimethyl-2-(3-(tetrahydrofuran-3-ylcarbamoyl)phenyl)-1,2,3,4-tetrahydroquinoline-6-carboxylic acid] in this work.
An E30 of 1.39 was found for `CC1(C)Cc2cc(C(=O)O)ccc2NC1c1ccc(NS(=O)(=O)c2ccccc2)cc1` (stereo not drawn) [Example 168, 3,3-Dimethyl-2-(4-(phenylsulfonamido)phenyl)-1,2,3,4-tetrahydroquinoline-6-carboxylic acid] in this work.
An E30 of 1.38 was found for `CC(=O)Nc1ccc(S(=O)(=O)Nc2cccc(C3Nc4ccc(C(=O)O)cc4CC3(C)C)c2)cc1` (stereo not drawn) [Example 169, 2-(3-(4-Acetamidophenylsulfonamido)phenyl)-3,3-dimethyl-1,2,3,4-tetrahydroquinoline-6-carboxylic acid] in this work.
An E30 of 1.36 was found for `CC1(C)Cc2cc(C(=O)O)ccc2NC1c1cccc(C(=O)NC2CC2)c1` (stereo not drawn) [Example 170, 2-(3-(Cyclopropylcarbamoyl)phenyl)-3,3-dimethyl-1,2,3,4-tetrahydroquinoline-6-carboxylic acid] in this work.
An E30 of 1.36 was found for `CC1(C)Cc2cc(C(=O)O)ccc2NC1c1cccc(C(=O)N2CCCC2)c1` (stereo not drawn) [Example 171, 3,3-Dimethyl-2-(3-(pyrrolidine-1-carbonyl)phenyl)-1,2,3,4-tetrahydroquinoline-6-carboxylic acid] in this work.
An E30 of 1.34 was found for `CC1(C)Cc2cc(C(=O)O)ccc2NC1c1cccc(C(=O)NC2CCC2)c1` (stereo not drawn) [Example 172, 2-(3-(Cyclobutylcarbamoyl)phenyl)-3,3-dimethyl-1,2,3,4-tetrahydroquinoline-6-carboxylic acid] in this work.
An E30 of 1.24 was found for `CC(C)NC(=O)c1cccc(C2Nc3ccc(C(=O)O)cc3CC2(C)C)c1` (stereo not drawn) [Example 173, 2-(3-(Isopropylcarbamoyl)phenyl)-3,3-dimethyl-1,2,3,4-tetrahydroquinoline-6-carboxylic acid] in this work.
An E30 of 1.54 was found for `CC(C)C(=O)Nc1cc(C2Nc3ccc(C(=O)O)cc3CC2(C)C)ccc1F` (stereo not drawn) [Example 174, 2-(4-Fluoro-3-isobutyramidophenyl)-3,3-dimethyl-1,2,3,4-tetrahydroquinoline-6-carboxylic acid] in this work.
An E30 of 1.5 was found for `CC1(C)Cc2cc(C(=O)O)ccc2NC1c1cccc(C(=O)NS(=O)(=O)c2ccccc2)c1` (stereo not drawn) [Example 175, 3,3-Dimethyl-2-(3-(phenylsulfonylcarbamoyl)phenyl)-1,2,3,4-tetrahydroquinoline-6-carboxylic acid] in this work.
An E30 of 1.44 was found for `CC1(C)Cc2cc(C(=O)O)ccc2NC1c1cccc(C(=O)NS(=O)(=O)C2CC2)c1` (stereo not drawn) [Example 176, 2-(3-(Cyclopropylsulfonylcarbamoyl)-phenyl)-3,3-dimethyl-1,2,3,4-tetrahydroquinoline-6-carboxylic acid] in this work.
An E30 of 1.4 was found for `CC(C)C(=O)Nc1cc(C2Nc3ccc(C(=O)O)cc3CC2(C)C)ccc1Cl` (stereo not drawn) [Example 177, 2-(4-Chloro-3-isobutyramidophenyl)-3,3-dimethyl-1,2,3,4-tetrahydroquinoline-6-carboxylic acid] in this work.
An E30 of 1.36 was found for `CC(C)C(=O)Nc1ccc(C2Nc3ccc(C(=O)O)cc3CC2(C)C)cc1` (stereo not drawn) [Example 178, 2-(4-Isobutyramidophenyl)-3,3-dimethyl-1,2,3,4-tetrahydroquinoline-6-carboxylic acid] in this work.
An E30 of 1.33 was found for `CC1(C)Cc2cc(C(=O)O)ccc2NC1c1cccc(C(=O)NS(C)(=O)=O)c1` (stereo not drawn) [Example 179, 3,3-Dimethyl-2-(3-(methylsulfonylcarbamoyl)-phenyl)-1,2,3,4-tetrahydroquinoline-6-carboxylic acid] in this work.
An E30 of 1.32 was found for `CC1(C)Cc2cc(C(=O)O)ccc2NC1c1ccc(F)c(NC(=O)c2ccccn2)c1` (stereo not drawn) [Example 180, 2-(4-Fluoro-3-(picolinamido)-phenyl)-3,3-dimethyl-1,2,3,4-tetrahydroquinoline-6-carboxylic acid] in this work.
An E30 of 1.31 was found for `CC1(C)Cc2cc(C(=O)O)ccc2NC1c1ccc(NS(=O)(=O)c2ccc(F)cc2)cc1` (stereo not drawn) [Example 181, 2-(4-(4-Fluorophenylsulfonamido)phenyl)-3,3-dimethyl-1,2,3,4-tetrahydroquinoline-6-carboxylic acid] in this work.
An E30 of 1.26 was found for `CC1(C)Cc2cc(C(=O)O)ccc2NC1c1ccc(NC(=O)c2ccc(F)cc2)cc1` (stereo not drawn) [Example 182, 2-(4-(4-Fluorobenzamido)phenyl)-3,3-dimethyl-1,2,3,4-tetrahydroquinoline-6-carboxylic acid] in this work.
An E30 of 1.25 was found for `Cc1ccc(S(=O)(=O)Nc2ccc(C3Nc4ccc(C(=O)O)cc4CC3(C)C)cc2)cc1` (stereo not drawn) [Example 183, 3,3-Dimethyl-2-(4-(4-methylphenylsulfonamido)phenyl)-1,2,3,4-tetrahydroquinoline-6-carboxylic acid] in this work.
An E30 of 1.24 was found for `CC1(C)Cc2cc(C(=O)O)ccc2NC1c1ccc(F)c(NC(=O)c2ccccc2)c1` (stereo not drawn) [Example 184, 2-(3-Benzamido-4-fluorophenyl)-3,3-dimethyl-1,2,3,4-tetrahydroquinoline-6-carboxylic acid] in this work.
An E30 of 1.22 was found for `CC1(C)Cc2cc(C(=O)O)ccc2NC1c1ccc(NC(=O)c2ccccc2)cc1` (stereo not drawn) [Example 185, 2-(4-Benzamidophenyl)-3,3-dimethyl-1,2,3,4-tetrahydroquinoline-6-carboxylic acid] in this work.
An E30 of 1.21 was found for `CC1(C)Cc2cc(C(=O)O)ccc2NC1c1ccc(NC(=O)c2ccccn2)cc1` (stereo not drawn) [Example 186, 3,3-Dimethyl-2-(4-(picolinamido)phenyl)-1,2,3,4-tetrahydroquinoline-6-carboxylic acid] in this work.
An E30 of 1.38 was found for `CNC(=O)c1cccc(C2Nc3ccc(C(=O)O)cc3CC2(C)C)c1` (stereo not drawn) [Example 187, 3,3-Dimethyl-2-(3-(methylcarbamoyl)phenyl)-1,2,3,4-tetrahydroquinoline-6-carboxylic acid] in this work.
An E30 of 1.31 was found for `CC1(C)Cc2cc(C(=O)O)ccc2NC1c1ccc(F)c(NC(=O)C2CC2)c1` (stereo not drawn) [Example 189, 2-(3-(Cyclopropanecarboxamido)-4-fluorophenyl)-3,3-dimethyl-1,2,3,4-tetrahydroquinoline-6-carboxylic acid] in this work.
An E30 of 1.3 was found for `CC1(C)Cc2cc(C(=O)O)ccc2NC1c1ccc(F)c(NC(=O)c2ccc(F)cc2Cl)c1` (stereo not drawn) [Example 190, 2-(3-(2-Chloro-4-fluorobenzamido)-4-fluorophenyl)-3,3-dimethyl-1,2,3,4-tetrahydroquinoline-6-carboxylic acid] in this work.
An E30 of 1.27 was found for `CC1(C)Cc2cc(C(=O)O)ccc2NC1c1cccc(C(=O)N2CCCCC2)c1` (stereo not drawn) [Example 191, 3,3-Dimethyl-2-(3-(piperidine-1-carbonyl)phenyl)-1,2,3,4-tetrahydroquinoline-6-carboxylic acid] in this work.
An E30 of 1.27 was found for `COCCNC(=O)c1cccc(C2Nc3ccc(C(=O)O)cc3CC2(C)C)c1` (stereo not drawn) [Example 192, 2-(3-(2-Methoxyethylcarbamoyl)phenyl)-3,3-dimethyl-1,2,3,4-tetrahydroquinoline-6-carboxylic acid] in this work.
An E30 of 1.26 was found for `CC1(C)Cc2cc(C(=O)O)ccc2NC1c1ccc(NC(=O)Cc2ccccc2)cc1` (stereo not drawn) [Example 193, 3,3-Dimethyl-2-(4-(2-phenylacetamido)phenyl)-1,2,3,4-tetrahydroquinoline-6-carboxylic acid] in this work.
An E30 of 1.25 was found for `CC1(C)Cc2cc(C(=O)O)ccc2NC1c1ccc(F)c(NC(=O)C2CCC2)c1` (stereo not drawn) [Example 194, 2-(3-(Cyclobutanecarboxamido)-4-fluorophenyl)-3,3-dimethyl-1,2,3,4-tetrahydroquinoline-6-carboxylic acid] in this work.
An E30 of 1.25 was found for `CC1(C)Cc2cc(C(=O)O)ccc2NC1c1ccc(Cl)c(NC(=O)C2CCCCC2)c1` (stereo not drawn) [Example 195, 2-(4-Chloro-3-(cyclohexanecarboxamido)phenyl)-3,3-dimethyl-1,2,3,4-tetrahydroquinoline-6-carboxylic acid] in this work.
An E30 of 1.25 was found for `CC1(C)Cc2cc(C(=O)O)ccc2NC1c1ccc(F)c(NC(=O)C2CCCC2)c1` (stereo not drawn) [Example 196, 2-(3-(Cyclopentanecarboxamido)-4-fluorophenyl)-,3-dimethyl-1,2,3,4-tetrahydroquinoline-6-carboxylic acid] in this work.

Reference: US8586747B2, “3,3-dimethyl tetrahydroquinoline derivatives” (Hoffmann-La Roche Inc., priority 2010, dated 2013)
